Measured values taken from US8044213B2, “Thiazolyl-benzimidazoles” (Hoffmann-La Roche Inc., priority 2008, dated 2011).

Target: T1, PLK1 (Homo sapiens, UniProt P53350)
T1 construct: Full-length, active GST-Plk1 was purified from Sf9 insect cells; GST (N); made in house; host or cells: Sf9 insect cells
Assay: Biochemical Characterization Assay B (peptide substrate, LABCHIP EZ Reader II)
Conditions: PLK1, peptide RRRAGALMDASFEEQ-CONH2, % conversion on LABCHIP EZ Reader II
Description: Compounds were serially diluted to 6400, 2133, 711, 237, 79, 26, 8.78, 2.93, 0.98 and 0.33 μM in 100% DMSO. Diluted compound was further diluted 20 fold with Kinase Assay Buffer (KAB). Peptide RRRAGALMDASFEEQ-CONH2 (MW 2090) was diluted to 1.2 μM with KAB and ATP was added to 400 μM. PLK1 stock, prepared as described above, was diluted to 3 μg protein/mL with KAB right before it was added to MATRIX 384-Well Polypropylene Black Plates to start the reaction. 20 μL of KAB diluted compounds (or 5% DMSO in KAB for Total and Blank), 20 μL of KAB diluted peptide with ATP and 40 μL of KAB diluted PLK1 solution (KAB without PLK 1 for Blanks) were transferred to each well of the polypropylene plates. The reaction mixtures were incubated at room temperature for 40 minutes. Reactions were stopped by addition of 10 uL Reaction Stopping Buffer (RSB) to each well. Plates were then read on LABCHIP EZ Reader II from Caliper Life Science.
The IC50 values for each compound were generated using an Excel template. The % conversion readings of Total and Blank were used as 0% and 100% inhibition. The percent inhibition values of reactions in the presence of compounds were calculated, and plotted against compound concentrations. All data were fitted into a Dose Response One Site model (4 parameter logistic model) as the following: (A+4B−A)/(1+((x/C)^13)))), with A and B as the bottom and top of the curve (highest and lowest inhibition), respectively, and C as IC50 and D as Hill Coefficient of the compound.

T1 sequence (P53350 whole entry): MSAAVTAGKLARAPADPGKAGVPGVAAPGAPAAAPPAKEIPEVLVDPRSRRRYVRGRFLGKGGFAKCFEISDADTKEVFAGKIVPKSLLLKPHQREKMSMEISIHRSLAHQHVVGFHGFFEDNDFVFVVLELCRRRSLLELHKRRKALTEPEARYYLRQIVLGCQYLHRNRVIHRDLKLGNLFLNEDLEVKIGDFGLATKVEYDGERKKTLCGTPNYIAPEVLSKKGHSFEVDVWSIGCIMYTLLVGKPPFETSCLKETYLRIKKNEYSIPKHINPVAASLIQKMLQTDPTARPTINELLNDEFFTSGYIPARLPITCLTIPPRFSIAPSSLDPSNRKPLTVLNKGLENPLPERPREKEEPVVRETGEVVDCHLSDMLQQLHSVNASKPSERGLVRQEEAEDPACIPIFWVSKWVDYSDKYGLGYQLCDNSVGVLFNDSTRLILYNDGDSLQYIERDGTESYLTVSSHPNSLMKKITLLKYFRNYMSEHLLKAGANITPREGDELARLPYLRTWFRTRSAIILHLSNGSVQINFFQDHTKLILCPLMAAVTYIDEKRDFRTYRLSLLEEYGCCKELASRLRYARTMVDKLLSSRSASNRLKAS

Structure (SMILES)	IC50
NC(=O)c1sc(-n2cnc3ccc(OCC4CCNCC4)cc32)nc1-c1cccc(Cl)c1 [Example 23, 4-(3-Chloro-phenyl)-2-[6-(piperidin-4-ylmethoxy)-benzoimidazol-1-yl]-thiazole-5-carboxylic acid amide]	0.017 µM
CC(C)(C)OC(=O)NC(C)(C)C(=O)NC1CCN(Cc2ccc3ncn(-c4nc(-c5cccc(Cl)c5)c(C(N)=O)s4)c3c2)CC1 [Example 15, [1-(1-{3-[5-Carbamoyl-4-(3-chloro-phenyl)-thiazol-2-yl]-3H-benzoimidazol-5-ylmethyl}-piperidin-4-ylcarbamoyl)-1-methyl-ethyl]-carbamic acid tert-butyl ester]	5.27 µM
NC(=O)c1sc(-n2cnc3ccc(CN4CCC(N)CC4)cc32)nc1-c1cccc(Cl)c1 [Example 13, 2-[6-(4-Amino-piperidin-1-ylmethyl)-benzoimidazol-1-yl]-4-(3-chloro-phenyl)-thiazole-5-carboxylic acid amide]	0.037 µM
CN1CCC(Oc2ccc3ncn(-c4nc(-c5cccc(Cl)c5)c(C(N)=O)s4)c3c2)CC1 [Example 22, 4-(3-Chloro-phenyl)-2-[6-(1-methyl-piperidin-4-yloxy)-benzoimidazol-1-yl]-thiazole-5-carboxylic acid amide]	0.018 µM
CN1CCC(C(=O)NC2CCN(Cc3ccc4ncn(-c5nc(-c6cccc(Cl)c6)c(C(N)=O)s5)c4c3)CC2)CC1 [Example 14, 1-Methyl-piperidine-4-carboxylic acid (1-{3-[5-carbamoyl-4-(3-chloro-phenyl)-thiazol-2-yl]3H-benzoimidazol-5-ylmethyl}-piperidin-4-yl)-amide]	1.48 µM
CN1CCN(CC(O)COc2ccc3ncn(-c4nc(-c5cccc(Cl)c5)c(C(N)=O)s4)c3c2)CC1 (stereo not drawn) [Example 39, 4-(3-Chloro-phenyl)-2-{6-[2-hydroxy-3-(4-methyl-piperazin-1-yl)-propoxy]-benzoimidazol-1-yl}-thiazole-5-carboxylic acid amide]	0.05 µM
NC(=O)c1sc(-n2cnc3ccc(OCCCN(CCO)CCO)cc32)nc1-c1cccc(Cl)c1 [Example 35, 2-(6-{3-[Bis-(2-hydroxy-ethyl)-amino]-propoxy}-benzoimidazol-1-yl)-4-(3-chloro-phenyl)-thiazole-5-carboxylic acid amide]	0.068 µM
NC(=O)c1sc(-n2cnc3ccc(OCCN4CCCCC4)cc32)nc1-c1cccc(Cl)c1 [Example 27, 4-(3-Chloro-phenyl)-2-[6-(2-piperidin-1-yl-ethoxy)-benzoimidazol-1-yl]-thiazole-5-carboxylic acid amide]	0.264 µM
CN(C)CCOc1ccc2ncn(-c3nc(-c4cccc(Cl)c4)c(C(N)=O)s3)c2c1 [Example 29, 4-(3-Chloro-phenyl)-2-[6-(2-dimethylamino-ethoxy)-benzoimidazol-1-yl]-thiazole-5-carboxylic acid amide]	0.356 µM
CN1CCN(CCCCOc2ccc3ncn(-c4nc(-c5cccc(Cl)c5)c(C(N)=O)s4)c3c2)CC1 [Example 37, 4-(3-Chloro-phenyl)-2-{6-[4-(4-methyl-piperazin-1-yl)-butoxy]-benzoimidazol-1-yl}-thiazole-5-carboxylic acid amide]	0.027 µM
NC(=O)c1sc(-n2cnc3ccc(OCC(O)CN4CCOCC4)cc32)nc1-c1cccc(Cl)c1 (stereo not drawn) [Example 40, 4-(3-Chloro-phenyl)-2-[6-(2-hydroxy-3-morpholin-4-yl-propoxy)-benzoimidazol-1-yl]-thiazole-5-carboxylic acid amide]	0.013 µM
COc1cc2ncn(-c3nc(-c4cccc(Cl)c4)c(C(N)=O)s3)c2cc1OCCCN1CCOCC1 [Example 43, 4-(3-Chloro-phenyl)-2-[5-methoxy-6-(3-morpholin-4-yl-propoxy)-benzoimidazol-1-yl]-thiazole-5-carboxylic acid amide]	0.008 µM
NC(=O)c1sc(-n2cnc3ccc(CN(CCCN4CCOCC4)CCCN4CCOCC4)cc32)nc1-c1cccc(Cl)c1 [Example 49, 2-(6-{[Bis-(3-morpholin-4-yl-propyl)-amino]-methyl}-benzoimidazol-1-yl)-4-(3-chloro-phenyl)-thiazole-5-carboxylic acid amide]	0.566 µM

Further lines, results first:

IC50	Structure (SMILES)
0.666 µM	CC(C)(C)OC(=O)NC1CCN(Cc2ccc3ncn(-c4nc(-c5cccc(Cl)c5)c(C(N)=O)s4)c3c2)CC1 [Example 12]
0.105 µM	CN1CCN(CCOc2ccc3ncn(-c4nc(-c5cccc(Cl)c5)c(C(N)=O)s4)c3c2)CC1 [Example 28, 4-(3-Chloro-phenyl)-2-{6-[2-(4-methyl-piperazin-1-yl)-ethoxy]-benzoimidazol-1-yl}-thiazole-5-carboxylic acid amide]
1.29 µM	CC(C)(N)C(=O)NC1CCN(Cc2ccc3ncn(-c4nc(-c5cccc(Cl)c5)c(C(N)=O)s4)c3c2)CC1 [Example 16, 2-{6-[4-(2-Amino-2-methyl-propionylamino)-piperidin-1-ylmethyl]-benzoimidazol-1-yl}-4-(3-chloro-phenyl)-thiazole-5-carboxylic acid amide]
0.013 µM	COc1cc2ncn(-c3nc(-c4cccc(Cl)c4)c(C(N)=O)s3)c2cc1CN1CCN(C)CC1 [Example 46, 4-(3-Chloro-phenyl)-2-[5-methoxy-6-(4-methyl-piperazin-1-ylmethyl)-benzoimidazol-1-yl]-thiazole-5-carboxylic acid amide]
0.5 µM	CN(C)CCN(C)Cc1ccc2ncn(-c3nc(-c4cccc(Cl)c4)c(C(N)=O)s3)c2c1 [Example 6, 4-(3-Chloro-phenyl)-2-(6-{[(2-dimethylamino-ethyl)-methyl-amino]-methyl}-benzoimidazol-1-yl)-thiazole-5-carboxylic acid amide]
0.014 µM	CN1CCC(COc2ccc3ncn(-c4nc(-c5cccc(Cl)c5)c(C(N)=O)s4)c3c2)CC1 [Example 24, 4-(3-Chloro-phenyl)-2-[6-(1-methyl-piperidin-4-ylmethoxy)-benzoimidazol-1-yl]-thiazole-5-carboxylic acid amide]
0.05 µM	NC(=O)c1sc(-n2cnc3ccc(OCCCN4CCCC4)cc32)nc1-c1cccc(Cl)c1 [Example 34, 4-(3-Chloro-phenyl)-2-[6-(3-pyrrolidin-1-yl-propoxy)-benzoimidazol-1-yl]-thiazole-5-carboxylic acid amide]
0.061 µM	COc1cc2ncn(-c3nc(-c4cccc(Cl)c4)c(C(N)=O)s3)c2cc1OCCN1CCN(C)CC1 [Example 44, 4-(3-Chloro-phenyl)-2-{5-methoxy-6-[2-(4-methyl-piperazin-1-yl)-ethoxy]-benzoimidazol-1-yl}-thiazole-5-carboxylic acid amide]
0.08 µM	NC(=O)c1sc(-n2cnc3ccc(OCCCNCCO)cc32)nc1-c1cccc(Cl)c1 [Example 36, 4-(3-Chloro-phenyl)-2-{6-[3-(2-hydroxy-ethylamino)-propoxy]-benzoimidazol-1-yl}-thiazole-5-carboxylic acid amide]
0.085 µM	CN(CCCN1CCOCC1)Cc1ccc2ncn(-c3nc(-c4cccc(Cl)c4)c(C(N)=O)s3)c2c1 [Example 50, 4-(3-Chloro-phenyl)-2-(6-{[methyl-(3-morpholin-4-yl-propyl)-amino]-methyl}-benzoimidazol-1-yl)-thiazole-5-carboxylic acid amide]
0.026 µM	COc1cc2ncn(-c3nc(-c4cccc(Cl)c4)c(C(N)=O)s3)c2cc1OCCN1CCOCC1 [Example 45, 4-(3-Chloro-phenyl)-2-[5-methoxy-6-(2-morpholin-4-yl-ethoxy)-benzoimidazol-1-yl]-thiazole-5-carboxylic acid amide]
